Source: patent US7115574B2, “System and method for support legacy operating system booting in a legacy-free system” (priority 2001, dated 2006)
Non-standard residues stand in square brackets, D forms with d. No end group written: not given here.

Key:
[1] = system: edema caused by intradermal injection of recombinant human IL-1β in the mouse ear; assay: IL-1β-induced ear edema with centrally administered α-MSH and receptor antagonists; assay type: in vivo, BALB/c mice
Protocol: See Macaluso, A., McCoy, D., Ceriani, G., Watanabe, T., Biltz, J., Catania, A., and Lipton, J. M., Anti-inflammatory Influences of a-MSH Molecules: Central Neurogenic and Peripheral Actions, 14(4), J. of Neuroscience 2377-2382 (1994). Female BALB/c mice (Simonsen Laboratories, Gilroy, Calif.), 7-8 weeks old, were housed at 23-25° C. in groups not exceeding five animals per cage [28 cm (L)×18 cm (W)×13 cm (H)]. Before the experiments they were acclimatized for not less than 1 week before experimentation to standard lighting and temperature conditions with food and water freely available.
Mice were anesthetized with 10% pentobarbital sodium solution (1 mg/mouse, 50 mg/ml, Nembutal sodium solution; Abbott Laboratories, North Chicago, Ill.). Baseline ear thickness measurements were taken with a spring-loaded micrometer (Swiss Precision Instruments, Los Angeles, Calif.). Ear thickness was expressed in centimeters and was measured at least twice at each time point. The average thickness of unstimulated ears was […]. Inflammation was induced by injecting 20 μl of recombinant human IL-1β (1500 U; Genzyme, Cambridge, Mass.) directly into the skin (intradermally) of one ear of each mouse using a 28 gauge needle (Hiltz et al., 1992). Measures of ear thickness were repeated 4 and 6 hr later, while the mice were under sodium pentobarbital anesthesia.
Several agents were administered at the time of ear challenge to pharmacologically block certain receptors: atropine (Sigma Chemical Co.; 150 μg i.p.), a muscarinic receptor blocker that acts on autonomic end-organ receptors, was chosen because of links between inflammation and modulation of pain and the finding that muscarinic antagonists increase pain threshold (Hartvig et al., 1989); phentolamine (Sigma; 150 μg i.p.) an agent that competes for occupancy of α-adrenergic receptors; propranolol (Sigma; 150 μg, i.p.; 30 μg, i.c.v.), a nonspecific competitive antagonist for β-adrenergic receptors.
Because of the size of the experiments and the requirement for several shipments of animals over time, several experiments were performed, each with complete treatment and control groups drawn from the same shipment of mice. Omnibus analysis of variance techniques (Dynastat, Washington, D.C.) were used to test overall differences among group means. Tukey's protected t test was used to compare individual means. Probability values of <0.05 were considered significant.

[2] = system: carrageenan-induced swelling in rat paws; assay: Rat paw edema test (carrageenan); assay type: in vivo, Sprague-Dawley rats; conditions: 100 mg/kg intraperitoneal, rats
Protocol: A second in vivo bioassay for anti-inflammatory activity was conducted in which the action of the tripeptide (SEQ ID NO: 1) was compared to that of hydrocortisone. In this assay, the two agents were given at similar doses and tested for their independent ability to inhibit carrageenan-induced swelling in rat paws. This assay, the rat paw edema test, was conducted generally as it is typically performed in the art, for example, as described by Winter et al. (1962), Proc. Soc. Exp. Biol. Med., 111:544 or in U.S. Pat. No. 4,150,137.
Briefly, the assay was performed as follows. Each of twenty-four male Sprague-Dawley rats was assigned to one of four groups: Tripeptide treatment and controls (matched according to body weight and initial paw volume), hydrocortisone treatment and matched controls. The volume of the right rear paw of the test and control animals was determined using standard procedures and a mercury displacement volumetric technique. […] One hour later 0.5 ml of 1% lambda carrageenan in saline solution was injected into the right rear paw of the animals and the paw volume was again recorded (baseline measure). For comparison of the effects of the two treatments, paw volume of experimental animals measured at hourly intervals was expressed as a percentage of the volume change of their respective matched controls.

C. albicans = C. albicans colony forming units (candidacidal activity); assay type: cell-based; conditions: for relative potency in reducing C. albicans viability: FIG. 2, 10^−4M melanocortin peptides
Protocol: C. albicans (clinical isolate) was obtained from the collection of the Department of Microbiology, Ospedale Maggiore di Milano and maintained on Sabouraud's agar slants and periodically transferred to Sabouraud's agar plates and incubated for 48 hours at 28° C. To prepare a stationary growth phase yeast, a colony was taken from the agar plate and transferred into 30 ml Sabouraud-dextrose broth and incubated for 72 hours at 32° C. Cells were centrifuged and suspended in Hank's balanced salt solution (“HBSS”) to the desired concentration. Viability, determined by the exclusion of 0.01% methylene blue, remained >98%.
C. albicans (1×10^6/ml in HBSS) was incubated in the presence or absence or α-MSH(1-13) (SEQ ID NO: 3) or (11-13) (SEQ ID NO: 1) at concentrations in the range of 10^−15 M to 10^−6 M for 2 hours at 37° C. Cells were then washed in cold distilled water and diluted with HBSS to a concentration of 100 organisms/ml. One-ml aliquots were dispensed on blood agar plates and incubated for 48 hours at 37° C. Organism viability was estimated from the number of colonies formed.
In subsequent experiments using familiar procedures we compared activity of α-MSH(4-10) (SEQ ID NO: 10), (6-13) (SEQ ID NO: 2), (11-13) (SEQ ID NO: 1), ACTH(1-39) (SEQ ID NO: 9), (18-39) (SEQ ID NO: 11) and fluconazole, the latter an established antifungal agent. Melanocortin peptides and fluconazole were tested in concentrations of 10^−6 M to 10^−4 M. There were at least six replicates for each concentration of peptide. […]

[3] = system: inflammation induced in the ear by picryl chloride application; assay: Picryl chloride-induced ear swelling; assay type: in vivo, BALB/C mice; conditions: for % Inhibition 3 h: 3 h after picryl chloride; for % Inhibition 6 h: 6 h after picryl chloride; for overall effect on inflammation (ANOVA): 10-80 μg IP, 3 and 6 h
Protocol: Hiltz, M. E., Catania, A., Lipton, J. M., Anti-Inflammatory Activity of aα-MSH (11-13) Analogs: Influence of Alteration in Stereochemistry, 12 Peptides 767 (1981). […] Female BALB/C mice (Simonsen Laboratories), 7 weeks old, were housed at 23-25° C. in groups of no more than 5 per cage [28 cm (L)×18 cm (W)×13 cm (H)]. They were allowed to acclimatize to standard lighting and temperature conditions for at least 1 week, with food and water available ad lib, before the experiment began. Five to ten animals were randomly assigned to each treatment group each test day, and all experiments were repeated at least twice to confirm reproducibility. To reduce error due to slight differences in responses to the irritant of animals from different shipments, tests of each agent were performed as separate experiments in which experimental and control animals were drawn from the same shipment.
In the experiments each animal was anesthetized with 1 mg of pentobarbital sodium solution ([…], Nembutal, Abbott Laboratories, Abbott park, Ill.). Baseline ear thickness was measured for both ears with a spring-loaded micrometer (Swiss Precision Instruments, Los Angeles, Calif.). Ear thickness was expressed in units of 10^−3 cm; the average thickness of unstimulated ears was approximately 25-30×10^−3 cm. After baseline measurements were taken, one of six solutions was injected IP. […] The doses of the tripeptides were 10 μg (2.6×.10^−8 M), 20 μg (5.2×.10^−8 M), 40 μg (1.04×.10^−7 M), and 80 μg (2.08×.10^−7 M). Immediately after saline or α-MSH injection, a micropipette was used to coat both sides of each ear with 10 μl […] of a 0.5% picryl chloride (Polysciences, Warrington, Pa.) solution in acetone.
Ear thickness was remeasured 3 and 6 h after picryl chloride application. Swelling was determined by subtracting baseline thickness from the measurements for each ear at 3 and 6 h. The differences for both ears were then averaged for the final analysis.
Repeated-measure ANOVA techniques were used to determine if there was an overall difference among group data for each peptide tested in separate experiments. In those cases in which the ANOVA yielded significant results, Dunnett's test was then used to compare the effects of peptide doses with control (saline) data for each of the two time periods, 3 and 6 h.

[4] = antagonist administered intraperitoneally

CC(C)NCC(O)COc1ccc(CC(N)=O)cc1 (stereo not drawn) [atenolol]
effect of antagonist on the anti-inflammatory influence of centrally administered α-MSH(1-13) [1, 4]: little inhibition

CN1[C@@H]2CC[C@H]1C[C@@H](OC(=O)C(CO)c1ccccc1)C2 (stereo partly drawn) [atropine]
effect of antagonist on the anti-inflammatory influence of centrally administered α-MSH(1-13) [1, 4]: did not alter

COc1ccc(OC)c(C(O)C(C)NC(C)(C)C)c1 (stereo not drawn) [butoxamine]
effect of antagonist on the anti-inflammatory influence of centrally administered α-MSH(1-13) [1, 4]: significantly reduced

C[C@]12CCC(=O)C=C1CC[C@@H]1[C@@H]2[C@@H](O)C[C@@]2(C)[C@H]1CC[C@]2(O)C(=O)CO [hydrocortisone, reference compound]
anti-inflammatory activity (inhibition of paw edema) ([2]; between 1 and 4 hours): nearly identical anti-inflammatory activity | decrease in paw inflammation ([2]; first hour after carrageenan injection): ~30%

Cc1ccc(N(CC2=NCCN2)c2cccc(O)c2)cc1 [phentolamine]
effect of antagonist on the anti-inflammatory influence of centrally administered α-MSH(1-13) [1, 4]: did not alter

CC(C)NCC(O)COc1cccc2ccccc12 (stereo not drawn) [propranolol]
effect of antagonist on the anti-inflammatory influence of centrally administered α-MSH(1-13) [1, 4]: inhibited | effect of antagonist on the anti-inflammatory influence of centrally administered α-MSH(1-13) ([1]; antagonist injected centrally): little effect

ACTH(1-39): adrenocortitrophic hormone (ACTH) peptide 1-39 (SYSMEHFRWGKPVGKKRRPVKVYPAGEDDEASEAFPLEF; listed as Homo sapiens) [reference compound]
relative potency in reducing C. albicans viability (C. albicans): did not reduce

ACTH(18-39): ACTH fragment (18-39) (CLIP) (RPVKVYPAGEDDEASEAFPLEF; Designed polypeptide with anti-inflammatory, anti-microbial, anti-fungal, and anti-viral properties.) [reference compound]
relative potency in reducing C. albicans viability (C. albicans): did not reduce

Ac-[D-Lys^11, D-Val^13]α-MSH(11-13)-NH2 (Ac-[dK]-Pro-[dV]-NH2; SMILES CC(=O)N[C@H](CCCCN)C(=O)N1CCC[C@H]1C(=O)N[C@@H](C(N)=O)C(C)C)
% Inhibition 3 h ([3]; 10 μg IP): 22% | % Inhibition 6 h ([3]; 10 μg IP): 22% | % Inhibition 3 h ([3]; 20 μg IP): 55% | % Inhibition 6 h ([3]; 20 μg IP): 46% | % Inhibition 3 h ([3]; 40 μg IP): 42% | % Inhibition 6 h ([3]; 40 μg IP): 41% | % Inhibition 3 h ([3]; 80 μg IP): 40% | % Inhibition 6 h ([3]; 80 μg IP): 44% | overall effect on inflammation (ANOVA) [3]: significant overall reduction in inflammation

Ac-[D-Lys^11]α-MSH(11-13)-NH2 (Ac-[dK]-Pro-Val-NH2; SMILES CC(=O)N[C@H](CCCCN)C(=O)N1CCC[C@H]1C(=O)N[C@H](C(N)=O)C(C)C)
% Inhibition 3 h ([3]; 10 μg IP): 23% | % Inhibition 6 h ([3]; 10 μg IP): 17% | % Inhibition 3 h ([3]; 20 μg IP): 25% | % Inhibition 6 h ([3]; 20 μg IP): 16% | % Inhibition 3 h ([3]; 40 μg IP): 35% | % Inhibition 6 h ([3]; 40 μg IP): 37% | % Inhibition 3 h ([3]; 80 μg IP): 34% | % Inhibition 6 h ([3]; 80 μg IP): 29% | overall effect on inflammation (ANOVA) [3]: significantly reduced inflammation

Ac-[D-Pro^12]α-MSH(11-13)-NH2 (Ac-Lys-[dP]-Val-NH2; SMILES CC(=O)N[C@@H](CCCCN)C(=O)N1CCC[C@@H]1C(=O)N[C@H](C(N)=O)C(C)C)
% Inhibition 3 h ([3]; 10 μg IP): 4% | % Inhibition 6 h ([3]; 10 μg IP): 8% | % Inhibition 3 h ([3]; 20 μg IP): 11% | % Inhibition 6 h ([3]; 20 μg IP): 5% | % Inhibition 3 h ([3]; 40 μg IP): 10% | % Inhibition 6 h ([3]; 40 μg IP): 8% | % Inhibition 3 h ([3]; 80 μg IP): 8% | % Inhibition 6 h ([3]; 80 μg IP): 6% | overall effect on inflammation (ANOVA) [3]: no significant effect on inflammation

Ac-[D-Val^13]α-MSH(11-13)-NH2 (Ac-Lys-Pro-[dV]-NH2; SMILES CC(=O)N[C@@H](CCCCN)C(=O)N1CCC[C@H]1C(=O)N[C@@H](C(N)=O)C(C)C) [Ac-[D-Pro^13]α-MSH(11-13)-NH2]
% Inhibition 3 h ([3]; 10 μg IP): 24% | % Inhibition 6 h ([3]; 10 μg IP): 23% | % Inhibition 3 h ([3]; 20 μg IP): 48% | % Inhibition 6 h ([3]; 20 μg IP): 54% | % Inhibition 3 h ([3]; 40 μg IP): 39% | % Inhibition 6 h ([3]; 40 μg IP): 45% | % Inhibition 3 h ([3]; 80 μg IP): 41% | % Inhibition 6 h ([3]; 80 μg IP): 29% | overall effect on inflammation (ANOVA) [3]: marked inhibitory influence

VPK-Ac-CC-Ac-KPV (Ac-CKPV; also: disulfide dimer via Cys)
effectiveness against microbes relative to α-MSH(11-13) (C. albicans): at least as effective as α-MSH(11-13) | C. albicans colony forming units (CFU) (C. albicans; FIG. 1, incubation 2 hours at 37° C.): inhibited
